Assays:
FZD6 = molecular target: T1, FZD6 (Homo sapiens, UniProt O60353); assay: NanoBRET screen HiBiT-FZD6 in HEK293; assay type: binding
T1 construct: purchased Promega (in-house HiBiT-GPCR construct library, NanoBRET)
T1 sequence (O60353 19-706): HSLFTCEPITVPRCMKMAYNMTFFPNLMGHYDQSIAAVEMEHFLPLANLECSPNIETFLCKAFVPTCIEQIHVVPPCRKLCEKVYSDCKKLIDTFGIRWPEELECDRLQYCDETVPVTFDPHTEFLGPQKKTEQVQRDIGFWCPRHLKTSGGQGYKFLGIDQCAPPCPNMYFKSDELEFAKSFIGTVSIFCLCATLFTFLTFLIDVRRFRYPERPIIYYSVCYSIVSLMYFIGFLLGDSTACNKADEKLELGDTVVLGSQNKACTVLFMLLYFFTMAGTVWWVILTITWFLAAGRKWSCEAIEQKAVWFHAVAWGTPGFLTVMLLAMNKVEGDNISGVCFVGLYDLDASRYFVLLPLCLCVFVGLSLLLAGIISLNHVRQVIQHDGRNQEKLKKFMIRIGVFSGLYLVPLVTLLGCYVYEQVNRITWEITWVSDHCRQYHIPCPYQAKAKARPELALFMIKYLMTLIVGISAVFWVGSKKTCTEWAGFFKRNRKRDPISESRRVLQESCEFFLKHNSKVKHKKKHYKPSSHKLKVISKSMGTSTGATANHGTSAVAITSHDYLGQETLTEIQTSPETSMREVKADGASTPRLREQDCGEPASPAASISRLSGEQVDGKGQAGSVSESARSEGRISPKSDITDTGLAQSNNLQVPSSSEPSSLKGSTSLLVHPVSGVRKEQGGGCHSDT
Method: (§1) Each tracer candidate was screened across the entire library of HiBiT-GPCR constructs using NanoBRET as the detection modality. As depicted in Figure 4A, the specificity of interactions was evaluated through decrease in BRET due to competitive displacement of a bound tracer by excess parental compound. Each tracer was analyzed for binding to each HiBiT-GPCR fusion in the absence and in the presence of competing parental compound. Briefly, HEK293 cells were transfected with HiBiT-GPCR constructs diluted into promoterless DNA to reduce expression and maximize translocation to the cell surface. Each tracer candidate was then screened at concentrations of 1 μM and 0.1 μM across cells expressing these fusions. Cells were treated for 1.5 h with tracer either alone or in the presence of 20 μM competing parental compound (i.e., control). BRET was measured upon addition of purified LgBiT and subsequent complementation with HiBiT genetically fused to a GPCR. The specificity of interactions was assessed through a decrease in BRET signal due to competitive displacement of the bound tracer. To further gauge the robustness of these interactions, the fold response over the control (i.e., BRETtracer/BRETcontrol) was calculated. We chose a 1.5-fold response, which translates to ≥7-fold signal over noise as the minimal threshold required to score an interaction as positive. […]. Below we highlight the screening results obtained for our exemplary fluorescent tracers based on Clozapine, Amitriptyline and AZD1283.
(§2) HiBiT-GPCR DNA constructs were diluted in 10 mM Tris pH 8 to a final concentration of 0.01 μg/μL, arrayed in 96-well plates and stored at −20 °C. For transfection, HEK293 cells were suspended in Opti-MEM (without phenol red) supplemented with 2% fetal bovine serum (Seradigm) and 100 units/mL penicillin–streptomycin (Gibco) at a final concentration of 220,000 cells/mL and dispensed into white 96-well plates at 90 μL/well. Subsequent transfections and screens were carried using an Agilent Bravo Automated Liquid Handling Platform. First, the 96-well HiBiT DNA arrays were diluted 25-fold in Opti-MEM (without serum or phenol red) to a final concentration of 0.0004 μg/μL and 20 μL of the diluted DNAs were transferred into new 96-well plates. Next, promoterless carrier DNA (1 μg/μL) was diluted 25-fold (0.04 μg/μL) and then dispensed into the diluted arrays at 20 μL/well. Following brief mixing, Viafect transfection reagent (Promega) diluted 16-fold into Opti-MEM was dispensed into the plates at 40 μL/well. After mixing by pipetting, plates were incubated for 10 min on the pipetting station deck. The DNA-transfection reagent complexes were then added to plates containing cells. To facilitate the screen, 10 μL of DNA-transfection reagent complexes were added in duplicates to the top 4 and bottom 4 rows, resulting in two identical 48-well arrays per plate. Plates with transfected cells were incubated for 18–20 h at 37 °C/5% CO2. A screen of each tracer across the entire library using two different concentrations requires duplicate plates of transfected cells. Depending on the number of tracers being screened, transfections can be scaled up using the same ratios. The next day, for each tracer, four 20× screening solutions in tracer dilution buffer (Promega) were prepared: two duplicates at final concentration of 20 μM and two duplicates at a final concentration of 2 μM. A competing unmodified compound was added to one of each duplicate at a final concentration of 400 μM. The four resulting solutions were diluted 4-fold in Opti-MEM without serum or phenol red to generate 5× solutions (5 µM and 0.5 µM tracer +/− 100 μM competing compound). To screen the library, a BioTek MultiFlo FX liquid dispenser was used to dispense 22.5 µL of tracer solution to the top 4 rows and 22.5 µL tracer + competing compound solution to the 4 bottom rows. Plates were briefly mixed on an orbital shaker and incubated for 1.5 h at room temperature. […]

CYSLTR2 = molecular target: T2, CYSLTR2 (Homo sapiens, UniProt Q9NS75); assay: NanoBRET screen HiBiT-CYSLTR2 in HEK293; assay type: binding
T2 construct: purchased Promega (in-house HiBiT-GPCR construct library, NanoBRET)
T2 sequence (Q9NS75 1-346): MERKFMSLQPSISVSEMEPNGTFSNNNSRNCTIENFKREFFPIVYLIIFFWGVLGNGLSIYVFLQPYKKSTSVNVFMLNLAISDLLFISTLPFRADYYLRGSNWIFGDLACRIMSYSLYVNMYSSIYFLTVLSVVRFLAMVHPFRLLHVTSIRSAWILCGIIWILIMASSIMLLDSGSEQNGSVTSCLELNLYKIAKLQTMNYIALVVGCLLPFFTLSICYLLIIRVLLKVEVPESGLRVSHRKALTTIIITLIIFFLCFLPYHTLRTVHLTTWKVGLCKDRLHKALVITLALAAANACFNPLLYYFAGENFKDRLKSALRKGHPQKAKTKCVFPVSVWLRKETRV
Method: as §1, §2

SMILES	NanoBRET Fold Response (FZD6; FZD6, tracer 0.1μM)	NanoBRET Fold Response (FZD6; FZD6, tracer 1μM)	NanoBRET Fold Response (CYSLTR2; CYSLTR2, tracer 0.1μM)	NanoBRET Fold Response (CYSLTR2; CYSLTR2, tracer 1μM)	other results
Cc1nc2n(c(=O)c1CCN1CCC(c3noc4cc(F)ccc34)CC1)CCCC2OC(=O)NCCOCCOCCOCCOCCNC(=O)CCc1ccc2n1[B-](F)(F)[N+]1=C(c3ccc[nH]3)C=CC1=C2 (stereo not shown) [Risperidone-2-NB590]	1.01	1.10	0.97	1.15	
CCOC(=O)c1cc(C#N)c(N2CCC(C(=O)NS(=O)(=O)Cc3ccccc3/C=C/C(=O)NCCNC(=O)CCc3ccc4n3[B-](F)(F)[N+]3=C(c5ccc[nH]5)C=CC3=C4)CC2)nc1C [AZD1283-1-NB590]					NanoBRET Fold Response (FZD6; FZD6, 0.1μM): 1.01; NanoBRET Fold Response (FZD6; FZD6, 1μM): 0.35; NanoBRET Fold Response (CYSLTR2; CYSLTR2, 0.1μM): 1.07; NanoBRET Fold Response (CYSLTR2; CYSLTR2, 1μM): 0.97
Cc1cc2c(s1)Nc1ccccc1N=C2N1CCN(CCCNC(=O)CCOCCOCCOCCOCCNC(=O)CCc2ccc3n2[B-](F)(F)[N+]2=C(c4ccc[nH]4)C=CC2=C3)CC1 [Olanzapine-a-2-NB590]	1.03	0.98	0.95	0.99	
COc1ccccc1N1CCN(CCCCN2C(=O)c3ccc(CNC(=O)CCOCCNC(=O)c4ccc(CNC(=O)CCc5ccc6n5[B-](F)(F)[N+]5=C(c7ccc[nH]7)C=CC5=C6)cc4)cc3C2=O)CC1 [NAN-190-3-NB590]	0.95	1.13	1.11	1.31	
CC(C)N(CC[C@H](c1ccccc1)c1cc(CCNC(=O)CCOCCOCCOCCOCCNC(=O)CCc2ccc3n2[B-](F)(F)[N+]2=C(c4ccc[nH]4)C=CC2=C3)ccc1O)C(C)C [Tolterodine-2-NB590]	0.83	0.88	0.93	1.00	
CN(C)CCC=C1c2ccccc2CCc2ccc(C(=O)NCCNC(=O)CCOCCOCCOCCOCCNC(=O)CCc3ccc4n3[B-](F)(F)[N+]3=C(c5ccc[nH]5)C=CC3=C4)cc21 [Amitriptyline-b-2-NB590]			0.95	1.04	NanoBRET Fold Response (FZD6; tracer at 0.1μM, listed as amitriptyline-b-2-NB590): 1.00; NanoBRET Fold Response (FZD6; tracer at 1μM): 0.98
O=C(CCOCCOCCOCCOCCNC(=O)CCc1ccc2n1[B-](F)(F)[N+]1=C(c3ccc[nH]3)C=CC1=C2)NCCCN1CCN(C2=Nc3ccccc3Oc3ccc(Cl)cc32)CC1 [Loxapine-a-2-NB590]	1.09	1.06	0.91	1.02	
CN(C)CCC=C1c2ccccc2CCc2ccc(C(=O)NCCNC(=O)CCOCCOCCOCCOCCNC(=O)CCc3ccc4n3[B-](F)(F)[N+]3=C(c5ccc[nH]5)C=CC3=C4)cc21 [Amitriptyline-a-2-NB590]					NanoBRET Fold Response (FZD6; tracer at 0.1μM): 1.10; NanoBRET Fold Response (FZD6; tracer at 1μM): 1.03
O=C(CCc1ccc2n1[B-](F)(F)[N+]1=C(c3ccc[nH]3)C=CC1=C2)NCCOCCOCCNC(=O)OCCOCCN1CCN(C2=Nc3ccccc3Sc3ccccc32)CC1 [Quetiapine-a-2-NB590]	1.01	1.15	0.88	0.85	
COc1ccccc1N1CCN(CCCCN2C(=O)c3ccc(CNC(=O)CCOCCOCCOCCOCCNC(=O)CCc4ccc5n4[B-](F)(F)[N+]4=C(c6ccc[nH]6)C=CC4=C5)cc3C2=O)CC1 [NAN-190-2-NB590]	0.95	1.04			
CN1CCN(C2=Nc3cc(Cl)ccc3N(CC(=O)NCCOCCOCCOCCOCCNC(=O)CCc3ccc4n3[B-](F)(F)[N+]3=C(c5ccc[nH]5)C=CC3=C4)c3ccccc32)CC1 [Clozapine-c-2-NB590]					NanoBRET Fold Response (FZD6; FZD6, 0.1μM tracer): 1.01; NanoBRET Fold Response (FZD6; FZD6, 1μM tracer): 1.04; NanoBRET Fold Response (CYSLTR2; CYSLTR2, 0.1μM tracer): 1.04; NanoBRET Fold Response (CYSLTR2; CYSLTR2, 1μM tracer): 1.07
COc1ccc2[nH]c(-c3ccc(CNC(=O)CCOCCOCCOCCOCCNC(=O)CCc4ccc5n4[B-](F)(F)[N+]4=C(c6ccc[nH]6)C=CC4=C5)cc3)c(CCNC(C)=O)c2n1 [AzomelatoninICO9-2-NB590]					NanoBRET Fold Response (FZD6; 0.1μM tracer): 1.12; NanoBRET Fold Response (FZD6; 1μM tracer): 0.94; NanoBRET Fold Response (CYSLTR2; 0.1μM tracer): 1.03; NanoBRET Fold Response (CYSLTR2; 1μM tracer): 1.06
O=C(CCOCCOCCOCCOCCNC(=O)CCc1ccc2n1[B-](F)(F)[N+]1=C(c3ccc[nH]3)C=CC1=C2)NCCCN1CCN(C2=Nc3cc(Cl)ccc3Nc3ccccc32)CC1 [Clozapine-a-2-NB590]					NanoBRET Fold Response (FZD6; FZD6, 0.1μM tracer): 0.99; NanoBRET Fold Response (FZD6; FZD6, 1μM tracer): 0.93; NanoBRET Fold Response (CYSLTR2; CYSLTR2, 0.1μM tracer): 0.99; NanoBRET Fold Response (CYSLTR2; CYSLTR2, 1μM tracer): 1.03
CCCn1c(=O)c2[nH]c(-c3ccc(OCC(=O)NCCNC(=O)CCOCCNC(=O)c4ccc(CNC(=O)CCc5ccc6n5[B-](F)(F)[N+]5=C(c7ccc[nH]7)C=CC5=C6)cc4)cc3)nc2n(CCC)c1=O [XAC-3-NB590]	0.95	1.05	1.08	1.01	
O=C(CCc1ccc2n1[B-](F)(F)[N+]1=C(c3ccc[nH]3)C=CC1=C2)NCc1ccc(C(=O)NCCOCCOCCNCC(O)COc2cccc3ccccc23)cc1 (stereo not shown) [Propranolol-3-NB590]					NanoBRET Fold Response (FZD6; FZD6, 0.1μM): 1.06; NanoBRET Fold Response (FZD6; FZD6, 1μM): 1.01; NanoBRET Fold Response (CYSLTR2; CYSLTR2, 0.1μM): 0.54; NanoBRET Fold Response (CYSLTR2; CYSLTR2, 1μM): 1.01
O=C(CCc1ccc2n1[B-](F)(F)[N+]1=C(c3ccc[nH]3)C=CC1=C2)NCc1ccc(C(=O)NCCOCCC(=O)N[C@@H]2CC[C@@]3(O)[C@H]4Cc5ccc(O)c6c5[C@@]3(CCN4CC3CC3)[C@H]2O6)cc1 [Naltrexone-3-NB590]	0.94	1.10	1.05	0.98	
CN(CCC=C1c2ccccc2CCc2ccccc21)C(=O)CCOCCOCCOCCOCCNC(=O)CCc1ccc2n1[B-](F)(F)[N+]1=C(c3ccc[nH]3)C=CC1=C2 [Amitriptyline-e-2-NB590]					NanoBRET Fold Response (FZD6; tracer at 1μM): 1.09
